Data as given in patent publication US5252495A, “Immunoassay for physostigmine” (priority 1992, dated 1993).
Structures can show the parent of a compound that is named as a salt.

Experiments:
[1] = target: Antibody from Diazo-coupled Immunogen; assay: RIA cross-reactivity: competition with labeled physostigmine for antibody from diazo-coupled immunogen; type: binding, New Zealand white rabbits; settings: 1:150, max 1000 ng tested
Method: (§1) Antibodies to the physostigmine-BSA immunogen were produced by injecting male New Zealand white rabbits with immunogens formed by either method. Prior to injection, the immunogen was emulsified with an equal volume of complete Freund's adjuvant, purchased from Difco Laboratories of Detroit, Mich. The initial immunization consisted of 0.8 mg of protein injected intracutaneously in multiple dorsal sites of the rabbits. Booster injections containing 0.8 mg of immunogen and incomplete Freund's adjuvant were administered every two months for the next six months. Antisera was collected one week after each booster injection from the central ear vein. The blood was allowed to clot at room temperature and then centrifuged at 1500×g for 15 minutes. The separated serum was stored frozen at -20° C. until assayed for the presence of physostigmine antibody.
In the assay procedure ^3 H-Physostigmine having specificity of 19.0 Ci/mmole and purchased from the Amersham Corp. of Arlington Heights, Ill., was used as tracer. The dilution of tracer (5000 dpm), antibody (1:150) and physostigmine standards (100-10,000 pg) were made using 0.01M phosphate buffer containing 150 mM sodium chloride with a pH of 7.4. […] Both standard and sample tubes were always analyzed in duplicate. The assay was carried out according to the protocol shown in Table 1 with the reagents were added to the assay tubes in the order shown.
(§2) According to the protocol for the RIA of the present invention, after the addition of antisera, the contents of the tubes were mixed and incubated for 3 hours at 4° C. The antigen which bound to the antibody was separated by adding saturated ammonium sulfate and centrifuging at 2500×g for 15 minutes. After aspiration of the supernatant, the precipitate was washed one time with 50% saturated ammonium sulfate; then the mixture was centrifuged and the supernatent removed. The precipitate was dissolved in 1.0 ml of distilled water, and the solution was transferred to a scintillation vial containing 10.0 ml of acquasol 2.
(§3) The radioactivity which was bound to the antibody was determined in counts per minute with a Beckman LS-3133P Liquid Scintillation Counter. […] The concentration of physostigmine is plotted on the horizontal axis, while the percent inhibition of binding radioactively labeled is plotted on the vertical axis. […] Concentrations of physostigmine in unknown samples were determined according to conventional calculations from the standard curve.
(§4) Competition of the compounds with labeled physostigmine (5000 dpm) for antibody binding sites was determined arbitrarily at 50% inhibition of the physostigmine on the standard curve. Each compound was tested for cross-reactivity with the antibody. The maximum concentration of each compound tested was 1000 ng.

[2] = target: Antibody from Mannich Immunogen; assay: RIA cross-reactivity: competition with labeled physostigmine for antibody from Mannich immunogen; type: binding, New Zealand white rabbits; settings: 1:100, max 1000 ng tested
Method: as §1
In the assay procedure ^3 H-Physostigmine having specificity of 19.0 Ci/mmole and purchased from the Amersham Corp. of Arlington Heights, Ill., was used as tracer. […] Both standard and sample tubes were always analyzed in duplicate. The assay was carried out according to the protocol shown in Table 1 with the reagents were added to the assay tubes in the order shown.
as §2, §3, §4

[3] = test system: antibodies to physostigmine; assay: Specificity of the antibodies to physostigmine (both antibodies; RIA, HPLC-RIA); type: binding, New Zealand white rabbits; settings: for binding to the antibodies: RIA
Method: as §1
In the assay procedure ^3 H-Physostigmine having specificity of 19.0 Ci/mmole and purchased from the Amersham Corp. of Arlington Heights, Ill., was used as tracer. The dilution of tracer (5000 dpm), antibody (1:150) and physostigmine standards (100-10,000 pg) were made using 0.01M phosphate buffer containing 150 mM sodium chloride with a pH of 7.4. […] Both standard and sample tubes were always analyzed in duplicate. […]
The HPLC system consisted of Waters Associates liquid chromatograph equipped with a 6000 A solvent delivery system, a Model 441 absorbance detector, a U6K injector, a model 720 system controller, an Omni Scribe recorder (Houston Instruments, Houston, Tex.), a model cygnet Fraction collector (ISCO, Lincoln, Nebr.).
High pressure liquid chromatography (HPLC) was performed using a model C18 u Bondapak column (30 cm×0.39 cm. lid) (waters). The Uv detector was fixed at 245 nm with range set at 0.005 absorbance units full scale and flow rate of the mobile phase adjusted to 2 ml/min. […]
The column was operated at ambient temperature. […] Each residue was then reconstituted using the assay buffer and was analyzed for physostigmine by the RIA. […]

[4] = cited from earlier work

CN1CCC2(C)c3cc4nc5c(=O)c6c(cc-5oc4cc3N(C)C12)N(C)C1N(C)CCC61C (centres unmarked) [Eserine blue]
IC50 (50% inhibition of binding of 3H-physostigmine) [1]: 600 ng
IC50 (50% inhibition of binding of 3H-physostigmine) [2]: 575 ng

CN1CC[C@@]2(C)c3cc(O)ccc3N(C)[C@@H]12 [Eseroline, eseroline]
IC50 (50% inhibition of binding of 3H-physostigmine) [1]: 200 ng
IC50 (50% inhibition of binding of 3H-physostigmine) [2]: 200 ng
amount required to displace radioactive physostigmine from the antibodies, relative to physostigmine [3]: ~150 times

COc1ccc2c(c1)c(CC(=O)O)c(C)n2C(=O)c1ccc(Cl)cc1 [Indomethacin]
IC50 (50% inhibition of binding of 3H-physostigmine) [1]: > 1000 ng
IC50 (50% inhibition of binding of 3H-physostigmine) [2]: > 1000 ng

COc1ccc2[nH]cc(CCNC(C)=O)c2c1 [Melatonin]
IC50 (50% inhibition of binding of 3H-physostigmine) [1]: > 1000 ng
IC50 (50% inhibition of binding of 3H-physostigmine) [2]: > 1000 ng

CN(C)C(=O)Oc1cccc([N+](C)(C)C)c1 [Neostigmine]
IC50 (50% inhibition of binding of 3H-physostigmine) [1]: > 1000 ng
IC50 (50% inhibition of binding of 3H-physostigmine) [2]: > 1000 ng
binding to the antibodies [3]: did not bind to the antibodies

C[n+]1ccccc1C=NO [Paralidoxime]
IC50 (50% inhibition of binding of 3H-physostigmine) [1]: > 1000 ng
IC50 (50% inhibition of binding of 3H-physostigmine) [2]: > 1000 ng

CNC(=O)Oc1ccc2c(c1)[C@]1(C)CCN(C)[C@@H]1N2C [Physostigmine salts]
stability in alkaline solutions ([4]; alkaline solutions): unstable in alkaline solutions
solubility in water [4]: soluble in water
color change upon exposure to air and light ([4]; rate enhanced in the presence of moisture): gradually turn red upon exposure to air and light

CN(C)C(=O)Oc1ccc[n+](C)c1 [Pyridostigmine]
IC50 (50% inhibition of binding of 3H-physostigmine) [1]: > 1000 ng
IC50 (50% inhibition of binding of 3H-physostigmine) [2]: > 1000 ng
binding to the antibodies [3]: did not bind to the antibodies

CN1CC[C@@]2(C)C3=CC(=O)C(=O)C=C3N(C)[C@@H]12 [Rubreserine]
IC50 (50% inhibition of binding of 3H-physostigmine) [1]: 224 ng
IC50 (50% inhibition of binding of 3H-physostigmine) [2]: 248 ng

NCCc1c[nH]c2ccc(O)cc12 [Serotonin]
IC50 (50% inhibition of binding of 3H-physostigmine) [1]: > 1000 ng
IC50 (50% inhibition of binding of 3H-physostigmine) [2]: > 1000 ng

Eserine brown
IC50 (50% inhibition of binding of 3H-physostigmine) [1]: 550 ng
IC50 (50% inhibition of binding of 3H-physostigmine) [2]: 625 ng
